Results as given in PubChem BioAssay (NCI).
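Values below derive from 48-hour exposures of cells grown in 96-well plates, with endpoints linearly interpolated between the two concentrations bracketing the appropriate inhibition level. At the TGI there is no net growth.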

Columns and labels:
Experiment in all cases: NCI-60 cell line screen, 48 h
[1] = test system: 786-0 renal
[2] = test system: A498 renal
[3] = test system: A549 NSCLC
[4] = test system: ACHN renal
[5] = test system: BT-549 breast
[6] = test system: CAKI-1 renal
[7] = test system: CCRF-CEM leukemia
[8] = test system: COLO 205 colon
[9] = test system: DU-145 prostate
[10] = test system: EKVX NSCLC
[11] = test system: HCC-2998 colon
[12] = test system: HCT-116 colon
[13] = test system: HCT-15 colon
[14] = test system: HL-60(TB) leukemia
[15] = test system: HOP-62 NSCLC
[16] = test system: HOP-92 NSCLC
[17] = test system: HS 578T breast
[18] = test system: HT29 colon
[19] = test system: IGROV1 ovarian
[20] = test system: K-562 leukemia
[21] = test system: KM12 colon
[22] = test system: LOX IMVI melanoma
[23] = test system: M14 melanoma
[24] = test system: MALME-3M melanoma
[25] = test system: MCF7 breast
[26] = test system: MDA-MB-231 breast
[27] = test system: MDA-MB-435
[28] = test system: MDA-N
[29] = test system: MOLT-4 leukemia
[30] = test system: NCI-H226 lung
[31] = test system: NCI-H23 lung
[32] = test system: NCI-H460 lung
[33] = test system: NCI-H522 lung
[34] = test system: NCI/ADR-RES ovarian
[35] = test system: OVCAR-3 ovarian
[36] = test system: OVCAR-4 ovarian
[37] = test system: OVCAR-5 ovarian
[38] = test system: OVCAR-8 ovarian
[39] = test system: PC-3 prostate
[40] = test system: RPMI-8226 leukemia
[41] = test system: RXF 393 renal
[42] = test system: SF-268 CNS
[43] = test system: SF-295 CNS
[44] = test system: SF-539 CNS
[45] = test system: SK-MEL-2 melanoma
[46] = test system: SK-MEL-28 melanoma
[47] = test system: SK-MEL-5 melanoma
[48] = test system: SK-OV-3 ovarian
[49] = test system: SN12C renal
[50] = test system: SNB-19 CNS
[51] = test system: SNB-75 CNS
[52] = test system: SR leukemia
[53] = test system: SW-620 colon
[54] = test system: T-47D breast
[55] = test system: TK-10 renal
[56] = test system: U251 CNS
[57] = test system: UACC-257 melanoma
[58] = test system: UACC-62 melanoma
[59] = test system: UO-31 renal

Q: How did the TGI [1] turn out when `CCC1C(c2cc(OC)c(OC)c(OC)c2)c2cc3c(cc2OC1N1CCCC1)OCO3` (centres undefined) was run?
A: 22.2 µM

Q: What about the TGI [2] of the same molecule?
A: 14 µM

Q: And the TGI [3]?
A: 20.2 µM

Q: What about the TGI [4] of the same molecule?
A: 26.6 µM

Q: And the TGI [5]?
A: 49.4 µM

Q: What about the TGI [6] of the same molecule?
A: 9.8 µM

Q: What about the TGI [7] of the same molecule?
A: 11.9 µM

Q: And the TGI [8]?
A: 12.1 µM

Q: And the TGI [9]?
A: 14.6 µM

Q: And the TGI [10]?
A: 59.8 µM

Q: What about the TGI [11] of the same molecule?
A: 8.16 µM

Q: What about the TGI [12] of the same molecule?
A: 11.5 µM

Q: What about the TGI [13] of the same molecule?
A: 27.2 µM

Q: And the TGI [14]?
A: > 23.3 µM

Q: And the TGI [15]?
A: 15.9 µM

Q: And the TGI [16]?
A: 21.3 µM

Q: And the TGI [17]?
A: 14.1 µM

Q: What about the TGI [18] of the same molecule?
A: 10.9 µM

Q: What about the TGI [19] of the same molecule?
A: 17.8 µM

Q: What about the TGI [20] of the same molecule?
A: 8.62 µM

Q: And the TGI [21]?
A: 22 µM

Q: What about the TGI [22] of the same molecule?
A: 22 µM

Q: What about the TGI [23] of the same molecule?
A: 26.6 µM

Q: What about the TGI [24] of the same molecule?
A: 40.3 µM

Q: What about the TGI [25] of the same molecule?
A: 13.7 µM

Q: What about the TGI [26] of the same molecule?
A: 20.5 µM

Q: What about the TGI [27] of the same molecule?
A: 1.07 µM

Q: What about the TGI [28] of the same molecule?
A: 0.795 µM

Q: And the TGI [29]?
A: 22.8 µM

Q: And the TGI [30]?
A: 8.78 µM

Q: What about the TGI [31] of the same molecule?
A: 39 µM

Q: What about the TGI [32] of the same molecule?
A: 12.4 µM

Q: And the TGI [33]?
A: 10.1 µM

Q: And the TGI [34]?
A: 7.03 µM

Q: And the TGI [35]?
A: 8.53 µM

Q: And the TGI [36]?
A: > 76 µM

Q: What about the TGI [37] of the same molecule?
A: 57.4 µM

Q: And the TGI [38]?
A: 23.9 µM

Q: What about the TGI [39] of the same molecule?
A: > 37.6 µM

Q: And the TGI [40]?
A: 26.2 µM

Q: And the TGI [41]?
A: 9.31 µM

Q: What about the TGI [42] of the same molecule?
A: 33 µM

Q: And the TGI [43]?
A: 8.25 µM

Q: What about the TGI [44] of the same molecule?
A: 5.53 µM

Q: And the TGI [45]?
A: 13 µM

Q: And the TGI [46]?
A: 60.6 µM

Q: And the TGI [47]?
A: 12.5 µM

Q: What about the TGI [48] of the same molecule?
A: 26.6 µM

Q: What about the TGI [49] of the same molecule?
A: 31.8 µM

Q: And the TGI [50]?
A: 24 µM

Q: What about the TGI [51] of the same molecule?
A: 31.4 µM

Q: What about the TGI [52] of the same molecule?
A: > 47.6 µM

Q: What about the TGI [53] of the same molecule?
A: 45.4 µM

Q: What about the TGI [54] of the same molecule?
A: 41.9 µM

Q: What about the TGI [55] of the same molecule?
A: 40.3 µM

Q: And the TGI [56]?
A: 11.7 µM

Q: What about the TGI [57] of the same molecule?
A: 55.6 µM

Q: What about the TGI [58] of the same molecule?
A: 23.4 µM

Q: What about the TGI [59] of the same molecule?
A: 23.1 µM
